Laboratory results: patent US20180125993A1 (BEIJING COTIMES BIOTECH COMPANY LIMITED, priority 2014, published 2018)

Key:
DR4-His-EC = target: T1, DR4-His-EC (Homo sapiens, UniProt O00220); assay: Binding specificity by chemiluminescent enzyme immunoassay (CLEIA); settings: antibody 200, 40 and 8 ng/mL; 1 hour, 37° C.
T1 construct: His; made in house; host or cells: E. coli
T1 sequence (O00220 24-468): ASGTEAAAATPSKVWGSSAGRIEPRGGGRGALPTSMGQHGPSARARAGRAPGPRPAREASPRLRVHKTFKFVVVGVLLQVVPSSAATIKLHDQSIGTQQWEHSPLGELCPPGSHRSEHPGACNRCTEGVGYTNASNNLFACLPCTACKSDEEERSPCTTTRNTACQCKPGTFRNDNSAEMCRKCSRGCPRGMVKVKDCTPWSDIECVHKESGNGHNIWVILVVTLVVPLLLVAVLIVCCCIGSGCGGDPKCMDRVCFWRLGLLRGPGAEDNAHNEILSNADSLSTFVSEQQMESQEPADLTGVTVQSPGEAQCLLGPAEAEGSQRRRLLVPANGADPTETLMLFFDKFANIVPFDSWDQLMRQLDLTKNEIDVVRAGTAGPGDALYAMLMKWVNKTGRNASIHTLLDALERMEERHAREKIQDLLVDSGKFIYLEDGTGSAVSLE
Procedure: (§1) The binding specificity of HuCTB006 was evaluated by chemiluminescent enzyme immunoassay (CLEIA).
(§2) HuCTB006 was diluted into 200, 40 and 8 ng/mL and then added to the wells. After 1 hour incubation in 37° C., the plate was washed. The binding of HuCTB006 with immobilized antigens was detected with HRP labeled secondary antibody and a substrate solution.

[1] = target: T2, DcR1-His (recombinant human TRAIL R3/TNFRSF10C) (Homo sapiens, UniProt O14798); assay: as above; settings: antibody 200, 40 and 8 ng/mL; 1 hour, 37° C.
T2 construct: His; purchased Novoprotein Science
T2 sequence (O14798 26-236): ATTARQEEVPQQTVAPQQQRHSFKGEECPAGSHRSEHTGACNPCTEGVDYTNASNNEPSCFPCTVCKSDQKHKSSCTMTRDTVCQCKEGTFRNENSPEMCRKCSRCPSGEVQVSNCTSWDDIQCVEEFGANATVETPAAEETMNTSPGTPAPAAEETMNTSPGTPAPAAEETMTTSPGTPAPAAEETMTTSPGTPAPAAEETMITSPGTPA
Procedure: as §1, §2

BT474 = assay: In vitro cytotoxic sensitivity of CTB006; format: cell-based, human; settings: BT474, Breast cancer
HT1080 = assay: In vitro cytotoxic sensitivity of CTB006; format: cell-based, human; settings: HT1080, Fibrosarcoma
colon cancer, CS182, 5# = assay: Patients primary tumor tissue subcutaneous model (Day 27 after treatment); format: in vivo, nude mice; settings: HuCTB006 10 mg/kg i.v. QW × 3w
Source text: Fresh primary tumor tissues from patients were implanted in NOD/SCID mice's flank, which developed into a primary tumor, which was then transferred to the nude mice's flank to allow the tumor reaching an exponential growth phase, and the tumor was named 1# tumor, and so on. When the tumor volume and number reached passage requirements, they were implanted into the right flank of nude mice. When the tumors' average volumes reached 100-200 mm^3, the mice were grouped.
The bodyweight and major/minor axis of mice were measured twice a week, and Tumor Growth Inhibition (TGI) and tumor volume were calculated same as in 5.1.5. In addition, to evaluate the synergetic effect of drug combination in tumor growth, Jin Zhengjun Q value judgment method was used with the follow formula: Q=Ea+b/(Ea+Eb−Ea×Eb). Ea+b is the inhibition ratio of drug combination, Ea and Eb are the inhibition ratio of each of drug treatment when it is administered alone. […] The animals were monitored, and when the experiments were concluded, mice were sacrificed and tumors were extracted and weighted. All the animal experiments confer to the regulations of animal's welfare and the management of experimental animal usage.
Tumor volumes were represented with average±standard error. Data analysis was done using Spss16.0, One-Way ANOVA, LSD (homogeneity of variance) or Dunnett T3 (non-homogeneity of variance). […] P<0.05 represents significant difference.

MIA-PaCa-2 = assay: Human pancreatic cancer MIA-PaCa-2 subcutaneous model (34 days of treatment); settings: for Tumor regression: treatment groups
Procedure: Tumor cells (i.e., MIA-PaCa-2, WiDr, H2122, colo205) were inoculated in nude mice's flank at 5×10^6 cells per mouse. The mice were grouped when the average volume of tumors reached about 100˜200 mm^3. “QW”=weekly dose. “Q3d”=dosed every third day. “BiW”=biweekly.
The bodyweight and major/minor axis of the mice were measured twice a week, and the tumor volumes were calculated using the formula: Tumor volume=1/2×major axis×minor axis. […] “T” represents average tumor volume of the experimental group (cm^3), and “C” represents average tumor volume of the control group (cm^3). The animals were monitored at all times. The bodyweight and major/minor axis or mice were measured twice a week. When the experiments were concluded, mice were sacrificed and tumors were extracted and weighted.

[2] = HuCTB006 0.2 mg/kg i.v. QW × 6W
[3] = HuCTB006 0.6 mg/kg i.v. QW × 6W
[4] = repeated experiment, HuCTB006 0.2 mg/kg
[5] = repeated experiment, HuCTB006 0.6 mg/kg
[6] = repeated experiment, HuCTB006 1 mg/kg
[7] = repeated experiment, HuCTB006 10 mg/kg

cross-reaction with coated antigen (DR4-His-EC): no cross-reaction | cross-reaction with coated antigen [1]: no cross-reaction
Substance: HuCTB006: Monospecific humanized chimeric monoclonal antibody directed to TRAIL-R2 receptor; heavy chain SEQ ID NO: 14, light chain SEQ ID NO: 12
In vitro cytotoxic sensitivity of CTB006 (BT474): Non-responder | In vitro cytotoxic sensitivity of CTB006 (HT1080): Non-responder | T/C % (Calculated using tumor volumes) (colon cancer, CS182, 5#): 102.39% | Time of tumor volume changed significantly (colon cancer, CS182, 5#): 3 | Tumor Volume Mean ± SEM (colon cancer, CS182, 5#): 0.95 ± 0.06 cm^3 | Tumor weight Mean ± SEM (colon cancer, CS182, 5#): 0.64 ± 0.06 g | TGI (Calculated using tumor volumes) (colon cancer, CS182, 5#; 10 mg/kg): −21.15% | TGI (Calculated using tumor weight) (colon cancer, CS182, 5#; 10 mg/kg): −9.22% | TGI (Calculated using tumor volumes) (colon cancer, CS182, 5#; listed as HUCTB006, 10 mg/kg): −21.15% | TGI (Calculated using tumor weight) (colon cancer, CS182, 5#; listed as HUCTB006, 10 mg/kg): −9.22% | T/C % (Calculated using tumor volumes) (MIA-PaCa-2; [2]): 52.01% | Time of tumor volume changed significantly (MIA-PaCa-2; [2]): 13 days after first treatment | Tumor Volume Mean ± SEM (MIA-PaCa-2; [2]): 1.76 ± 0.15 cm^3 | Tumor weight Mean ± SEM (MIA-PaCa-2; [2]): 0.79 ± 0.07 g | T/C % (Calculated using tumor volumes) (MIA-PaCa-2; [3]): 38.43% | Tumor Volume Mean ± SEM (MIA-PaCa-2; [3]): 1.27 ± 0.43 cm^3 | Tumor weight Mean ± SEM (MIA-PaCa-2; [3]): 0.54 ± 0.21 g | T/C % (Calculated using tumor volumes) (MIA-PaCa-2; HuCTB006 1 mg/kg i.v. QW × 6W): 24.02% | Tumor Volume Mean ± SEM (MIA-PaCa-2; HuCTB006 1 mg/kg i.v. QW × 6W): 0.88 ± 0.35 cm^3 | Tumor weight Mean ± SEM (MIA-PaCa-2; HuCTB006 1 mg/kg i.v. QW × 6W): 0.37 ± 0.19 g | T/C % (Calculated using tumor volumes) (MIA-PaCa-2; HuCTB006 10 mg/kg i.v. QW × 6W): 23.01% | Time of tumor volume changed significantly (MIA-PaCa-2; HuCTB006 10 mg/kg i.v. QW × 6W): 7^2 days after first treatment | Tumor Volume Mean ± SEM (MIA-PaCa-2; HuCTB006 10 mg/kg i.v. QW × 6W): 0.76 ± 0.22 cm^3 | Tumor weight Mean ± SEM (MIA-PaCa-2; HuCTB006 10 mg/kg i.v. QW × 6W): 0.19 ± 0.08 g | Tumor regression (MIA-PaCa-2; first experiment): some animals of HuCTB006 groups showed tumor regression | Tumor regression (MIA-PaCa-2; repeated experiment): some animals of HuCTB006 groups also showed tumor regression | TGI calculated based on the tumor volume (MIA-PaCa-2; [4]): 59.52% | TGI calculated based on the tumor weight (MIA-PaCa-2; [4]): 72.38% | TGI calculated based on the tumor volume (MIA-PaCa-2; [5]): 85.35% | TGI calculated based on the tumor weight (MIA-PaCa-2; [5]): 91.39% | TGI calculated based on the tumor volume (MIA-PaCa-2; [6]): 87.52% | TGI calculated based on the tumor weight (MIA-PaCa-2; [6]): 92.02% | TGI calculated based on the tumor volume (MIA-PaCa-2; [7]): 58.99% | TGI calculated based on the tumor weight (MIA-PaCa-2; [7]): 71.93% | Bodyweights of mice (MIA-PaCa-2; treatment groups over the time): slow increase over the time
